Data: ChEMBL document CHEMBL3045068, “Effect of methomyl and oxamyl soil applications on early control of nematodes and insects” (Pest Manag Sci, 2011)
≈ marks a conversion by molar mass, not a printed value.

What was measured:
Meloidogyne incognita [1] = assay: Nematicidal activity against second juvenile stage of Meloidogyne incognita (root-knot nematode) infected pea plant assessed as root fresh weight at 4 kg ai/ha applied to soil measured up to 14 days post planting under green house conditions (reference value: 4.3 +/- 0.56 g); format: functional
Meloidogyne incognita [2] = assay: Nematicidal activity against second juvenile stage of Meloidogyne incognita (root-knot nematode) infected lima bean plant assessed as root dry weight at 3 kg ai/ha applied to soil measured up to 14 days post planting under green house conditions (reference value: 0.5 +/- 0.052 g); format: functional
Pisum sativum [3] = assay: Phytotoxicity in Pisum sativum (pea) assessed as plant fresh weight at 4 kg ai/ha applied to soil measured up to 7 days post planting at 27 degC under green house conditions (reference value: 3.9 +/- 0.83 g); format: organism-based; conditions: lathyrus oleraceus, in vivo, other, 168 h
Meloidogyne incognita [4] = assay: Nematicidal activity against second juvenile stage of Meloidogyne incognita (root-knot nematode) infected pea plant assessed as reduction in root gall index at 4 kg ai/ha applied to soil measured up to 7 days post planting under green house conditions (reference value: 9.7 +/- 0.30%); format: functional
Aphis gossypii = assay: Insecticidal activity against Aphis gossypii (cotton aphid) infested cotton assessed as mortality applied to soil after 5 days; format: functional
Pisum sativum [5] = assay: Phytotoxicity in Pisum sativum (pea) assessed as plant fresh weight at 2 kg ai/ha applied to soil measured up to 7 days post planting at 19 degC (reference value: 9.4 +/- 0.54 g); format: organism-based; conditions: lathyrus oleraceus, in vivo, other, 168 h
Meloidogyne incognita [6] = assay: Nematicidal activity against second juvenile stage of Meloidogyne incognita (root-knot nematode) infected lima bean plant assessed as root dry weight at 4 kg ai/ha applied to soil measured up to 14 days post planting under green house conditions (reference value: 0.5 +/- 0.052 g); format: functional
Meloidogyne incognita [7] = assay: Nematicidal activity against second juvenile stage of Meloidogyne incognita (root-knot nematode) infected lima bean plant assessed as emergence at 3 kg ai/ha applied to soil measured up to 14 days post planting under green house conditions (reference value: 83 +/- 5%); format: functional
Pisum sativum [8] = assay: Phytotoxicity in Pisum sativum (pea) assessed as emergence at 3 kg ai/ha applied to soil measured up to 14 days post planting at 27 degC under green house conditions (reference value: 70 +/- 3.3%); format: organism-based; conditions: lathyrus oleraceus, in vivo, other, 336 h
Bemisia tabaci [9] = assay: Insecticidal activity against second-instar […] stage of Bemisia tabaci (sweet potato whitefly) infested cotton assessed as mortality applied through foliar spray after 6 days; format: functional
Gossypium hirsutum = assay: Phytotoxicity in Gossypium hirsutum (cotton) assessed as concentration required to cause foliar edge burn applied to soil after 4 weeks; format: organism-based; conditions: in vivo, other, 672 h
Meloidogyne incognita [10] = assay: Nematicidal activity against second juvenile stage of Meloidogyne incognita (root-knot nematode) infected lima bean plant assessed as reduction in root gall index at 2 kg ai/ha applied to soil measured during planting under green house conditions (reference value: 7 +/- 0.27%); format: functional
Pisum sativum [11] = assay: Phytotoxicity in Pisum sativum (pea) assessed as emergence at 4 kg ai/ha applied to soil measured up to 7 days post planting at 19 degC relative to untreated control; format: organism-based; conditions: lathyrus oleraceus, in vivo, other, 168 h
Pisum sativum [12] = assay: Phytotoxicity in Pisum sativum (pea) assessed as plant height at 3 kg ai/ha applied to soil measured up to 14 days post planting at 27 degC under green house conditions (reference value: 9.6 +/- 1.5 cm); format: organism-based; conditions: lathyrus oleraceus, in vivo, other, 336 h
Meloidogyne incognita [13] = assay: Nematicidal activity against second juvenile stage of Meloidogyne incognita (root-knot nematode) infected pea plant assessed as reduction in root gall index at 4 kg ai/ha applied to soil measured up to 14 days post planting under green house conditions (reference value: 9.7 +/- 0.30%); format: functional
Phaseolus lunatus [14] = assay: Phytotoxicity in Phaseolus lunatus (lima bean) plant assessed as plant dry weight at 2.56 kg ai/ha applied to soil measured up to 14 days under green house conditions (reference value: 1.20 +/- 0.21 g); format: organism-based; conditions: in vivo, other, 336 h
Pisum sativum [15] = assay: Phytotoxicity in Pisum sativum (pea) assessed as emergence at 2 kg ai/ha applied to soil measured up to 7 days post planting at 27 degC under green house conditions (reference value: 70 +/- 3.3%); format: organism-based; conditions: lathyrus oleraceus, in vivo, other, 168 h
Pisum sativum [16] = assay: Phytotoxicity in Pisum sativum (pea) assessed as emergence at 2 kg ai/ha applied to soil measured up to 7 days post planting at 19 degC relative to untreated control; format: organism-based; conditions: lathyrus oleraceus, in vivo, other, 168 h
Meloidogyne incognita [17] = assay: Nematicidal activity against second juvenile stage of Meloidogyne incognita (root-knot nematode) infected pea plant assessed as root dry weight at 3 kg ai/ha applied to soil measured up to 14 days post planting under green house conditions (reference value: 0.25 +/- 0.041 g); format: functional
[18] = tested on: Frankliniella occidentalis; assay: Insecticidal activity against Frankliniella occidentalis (western flower thrips) infested beans assessed as mortality applied to soil after 7 days; format: functional
Meloidogyne incognita [19] = assay: Nematicidal activity against second juvenile stage of Meloidogyne incognita (root-knot nematode) infected lima bean plant assessed as root dry weight at 3 kg ai/ha applied to soil measured up to 7 days post planting under green house conditions (reference value: 0.5 +/- 0.052 g); format: functional
Meloidogyne incognita [20] = assay: Nematicidal activity against second juvenile stage of Meloidogyne incognita (root-knot nematode) infected lima bean plant assessed as reduction in root gall index at 3 kg ai/ha applied to soil measured up to 14 days post planting under green house conditions (reference value: 7 +/- 0.27%); format: functional
Trichoplusia ni = assay: Insecticidal activity against Trichoplusia ni (cabbage looper) infested cabbage assessed as mortality applied to soil after 72 hr; format: functional
Meloidogyne incognita [21] = assay: Nematicidal activity against second juvenile stage of Meloidogyne incognita (root-knot nematode) infected pea plant assessed as plant emergence at 3 kg ai/ha applied to soil measured up to 7 days post planting under green house conditions (reference value: 75 +/- 13%); format: functional
Meloidogyne incognita [22] = assay: Nematicidal activity against second juvenile stage of Meloidogyne incognita (root-knot nematode) infected lima bean plant assessed as emergence at 2 kg ai/ha applied to soil measured during planting under green house conditions (reference value: 83 +/- 5%); format: functional
Meloidogyne incognita [23] = assay: Nematicidal activity against second juvenile stage of Meloidogyne incognita (root-knot nematode) infected lima bean plant assessed as emergence at 4 kg ai/ha applied to soil measured up to 14 days post planting under green house conditions (reference value: 83 +/- 5%); format: functional
Meloidogyne incognita [24] = assay: Nematicidal activity against second juvenile stage of Meloidogyne incognita (root-knot nematode) assessed as mortality at 20 mg ai/L after 48 to 72 hr relative to control; format: functional
Phaseolus lunatus [25] = assay: Phytotoxicity in Phaseolus lunatus (lima bean) plant assessed as emergence at 2.56 kg ai/ha applied to soil measured up to 14 days under green house conditions (reference value: 70 +/- 16%); format: organism-based; conditions: in vivo, other, 336 h
Meloidogyne incognita [26] = assay: Nematicidal activity against second juvenile stage of Meloidogyne incognita (root-knot nematode) infected pea plant assessed as plant fresh weight at 3 kg ai/ha applied to soil measured up to 14 days post planting under green house conditions (reference value: 4.3 +/- 0.56 g); format: functional
Bemisia tabaci [27] = assay: Insecticidal activity against second-instar […] stage of Bemisia tabaci (sweet potato whitefly) infested cotton assessed as mortality applied to soil after 6 days; format: functional

CNC(=O)ON=C(C)SC [METHOMYL]
Activity (Meloidogyne incognita [1]): 5.5 g
Activity (Meloidogyne incognita [2]): 0.38 g
Activity (Pisum sativum [3]): 3.1 g
Root_galling_index (Meloidogyne incognita [4]): 0%
LC90 (Aphis gossypii): 11 µg/mL (≈ 67.8 µM)
LC50 (Aphis gossypii; Aphis gossypii, soil, 120 h): 5 µg/mL (≈ 30.8 µM)
Activity (Pisum sativum [5]): 11.6 g
Activity (Meloidogyne incognita [6]): 0.27 g
Activity (Meloidogyne incognita [7]): 83%
Activity (Pisum sativum [8]): 80%
LC90 (Bemisia tabaci [9]): 1589 µg/mL (≈ 9800 µM)
LC50 (Bemisia tabaci [9]; Bemisia tabaci, foliar, 144 h): 203 µg/mL (≈ 1250 µM)
Activity (Gossypium hirsutum): 100 µg/mL
Root_galling_index (Meloidogyne incognita [10]): 0%
Activity (Pisum sativum [11]): 100%
Activity (Pisum sativum [12]): 9.1 cm
Root_galling_index (Meloidogyne incognita [13]): 0%
Activity (Phaseolus lunatus [14]): 1.25 g
Activity (Pisum sativum [15]): 50%
Activity (Pisum sativum [16]): 93%
Activity (Meloidogyne incognita [17]): 0.25 g
LC90 [18]: 36 µg/mL (≈ 222 µM)
LC50 ([18]; Frankliniella occidentalis, soil, 168 h): 22 µg/mL (≈ 136 µM)
Activity (Meloidogyne incognita [19]): 0.39 g
Root_galling_index (Meloidogyne incognita [20]): 0%
LC90 (Trichoplusia ni): 547 µg/mL (≈ 3370 µM)
LC50 (Trichoplusia ni; Trichoplusia ni, soil, 72 h): 100 µg/mL (≈ 616 µM)
Activity (Meloidogyne incognita [21]): 13%
Activity (Meloidogyne incognita [22]): 100%
Activity (Meloidogyne incognita [23]): 83%
mortality at 20 µg/mL (Meloidogyne incognita [24]): 95%
Activity (Phaseolus lunatus [25]): 80%
Activity (Meloidogyne incognita [26]): 5.2 g
LC90 (Bemisia tabaci [27]): 1119 µg/mL (≈ 6900 µM)
LC50 (Bemisia tabaci [27]; Bemisia tabaci, soil, 144 h): 673 µg/mL (≈ 4150 µM)
